Consider three molecules from paper PMC9736157 (Molecules, 2022).

Data set [1] relates to Colo205 cells. The data set is described as follows: Cell permeability in Colo205 cells. It counts as in vitro ADME. The following applies: Colo205 cells (Table S1).
Data set [2] concerns A375 melanoma cell line. Put plainly: Antiproliferative activity, CellTiter-Glo, A375. It counts as cell-based. The following applies: Homo sapiens, A-375, A375, 72 h. The method, then: Based on the previous preliminary tests, we sought to investigate the ability of synthesized compounds 5–15 and reference 1 in inhibiting the proliferation of BRAF^V600E mutant cancer cells. A first screening was conducted in A375 melanoma cell lines (Table 1, Figure S2). Encorafenib was employed for comparison.
(§1) The ability of compounds 5, 10, 11, 15–selected based on their chemical diversity–to inhibit cell proliferation was then tested both in A375 and in Colo205 cancer cell lines. […] P5B was obtained by joining the BRAF inhibitor BI 882370 to pomalidomide through a five PEG unit spacer (Figure S3). In compound P5B, the linker length was of 17 atoms, the same length of the spacer used to generate our compound 10. A375 and Colo205 cells were treated for 72 h with compounds 5, 10, 11, 15, and P5B, and the antiproliferative activity was measured by a luminescent ATP-based assay, which determines the number of viable cells based on their metabolic activity. […] However, P5B was more efficient in inhibiting tumor cell viability in comparison with the other selected compounds.
(§2) Cell viability was evaluated by means of CellTiter-Glo Luminescent Assay (Promega), which allows users to measure the ATP in the cell supernatant. The assay was performed according to manufacturer’s instructions. In brief, 4.10^3 A375 or Colo205 were seeded into 96-well plates and allowed to adhere at the wall overnight. Cells were treated for 72 h with BRAF inhibitor compounds. Then, 90 µL of the cell culture medium was transferred in a white 96-well plate, to which 10 µL of CellTiter-Glo was added before measurement of luminescence. Luminescence was measured by the SPARK M10 (Tecan, Männedorf, Switzerland) plate reader.
(Cellular ATP, detected with luciferase, serves as a proxy for viable cell number.)

A short description of data set [3]: Stability in human serum. Type of data set: in vitro ADME. The following applies: male, 37 °C. The method, then: (§3) Stability of compounds was determined in RPMI medium and in human serum. DMSO stock solutions of compounds (10 mM) was added to RPMI (Sigma–Aldrich, Darmstadt, Germany) competed with 10% fetal bovine serum (FBS) plus 2 mM glutamine, penicillin (100 IU/mL), and streptomycin (100 μγ/mL; Sigma–Aldrich, Darmstadt, Germany) or to human serum (sterile-filtered from human male AB plasma, Sigma–Aldrich, Darmstadt, Germany), to obtain the 100 μM final concentration with 1% of DMSO. The resulting solutions were incubated at 37 °C for 48 h. At appropriate time intervals (0, 1, 5, 24 and 48 h), 300 µL of the reaction mixture was withdrawn and added to 300 µL of acetonitrile 0.1% TFA. The samples were vortexed, sonicated for 3 min and then centrifuged for 5 min at 2500× g. The clear supernatant was filtered through a PTFE 0.45 μm filter (VWR) and analyzed by RP-HPLC. Each experiment was independently repeated at least three times, and results are expressed as a percentage of unmodified compound over time. The half-life was determined by fitting the data with a one phase exponential decay equation (Graph Pad, Prism software vr. 5, GraphPad Software Inc., San Diego, CA, USA). […]
(§4) The column effluent was monitored at 226 and 300 nm, referenced against a 800 nm wavelength. […] Quantitation of compounds was obtained by calibration curves (linearity determined in a concentration range of 1–100 µM, r^2 > 0.99).

The target in data set [4] is T1, B-RAF (V600E) (Homo sapiens, UniProt P15056, V600E).
T1 construct: purchased BPS Bioscience
T1 sequence (P15056 whole entry V600E): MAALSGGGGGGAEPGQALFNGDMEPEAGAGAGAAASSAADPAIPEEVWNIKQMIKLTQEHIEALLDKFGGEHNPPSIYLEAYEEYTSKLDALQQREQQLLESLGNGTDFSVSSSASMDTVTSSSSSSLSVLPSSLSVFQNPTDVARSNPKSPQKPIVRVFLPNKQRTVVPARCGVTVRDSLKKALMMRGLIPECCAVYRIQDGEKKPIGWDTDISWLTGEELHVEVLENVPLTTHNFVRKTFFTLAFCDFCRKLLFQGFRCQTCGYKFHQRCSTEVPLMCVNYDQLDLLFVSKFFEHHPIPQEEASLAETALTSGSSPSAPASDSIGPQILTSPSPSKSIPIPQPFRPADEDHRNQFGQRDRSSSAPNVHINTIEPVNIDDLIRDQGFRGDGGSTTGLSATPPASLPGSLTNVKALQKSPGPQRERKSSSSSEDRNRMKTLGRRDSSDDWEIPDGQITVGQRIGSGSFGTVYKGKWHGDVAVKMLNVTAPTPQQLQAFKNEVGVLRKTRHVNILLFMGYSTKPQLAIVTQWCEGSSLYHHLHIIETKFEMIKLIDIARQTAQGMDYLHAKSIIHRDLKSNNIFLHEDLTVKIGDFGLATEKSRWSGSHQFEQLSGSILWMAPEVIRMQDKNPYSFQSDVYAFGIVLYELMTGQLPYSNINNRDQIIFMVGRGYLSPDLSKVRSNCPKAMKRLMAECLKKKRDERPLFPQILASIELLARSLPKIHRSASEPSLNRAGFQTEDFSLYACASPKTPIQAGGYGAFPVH
The data set is described as follows: BRAF^V600E inhibition assay (B-RAF (V600E) Kinase Assay Kit, Kinase-Glo MAX). Type of data set: biochemical. The note with it: isolated BRAF^V600E, ATP 10 μM, 30 °C, 45 min; three experiments in duplicate; read-out: BRAF (V600E) Kinase Activity IC50 (nM ± SEM). The protocol: In a 96-well plate, the different inhibitor solutions in DMSO were mixed with Buffer, ATP (10 μM) and Raf substrate. […] After a 15 min delay to equilibrate plate temperature, 50 μL of Kinase-Glo Max was added in each well, and the luminescence was measured according to supplier’s instruction. The results, reported as IC50 ± S.E.M., were calculated with GrapPad Prism 7 and derive from three different experiments run in duplicate.
(In general: Kinase-Glo measures the ATP left after a reaction by luminescence.)

A short description of data set [5]: Stability in RPMI cell medium. The following applies: RPMI cell culture medium with 10% FBS, RPMI with 10% FBS, 37 °C. It counts as in vitro ADME. The method, then: as §3, §4
The test system of data set [6] is phosphorylation of MEK and ERK. Put plainly: Western blot, BRAF signaling in Colo205. Type of data set: cell-based. The note with it: Colo205, 24 h incubation. The method, then:
(§5) Finally, we investigated the capability of the most antiproliferative compounds in interfering with BRAF pathway, favoring target degradation. To this end, Western blot analysis was conducted 24 h after incubation with 10 and 11 in both A375 and Colo205 cell lines. […] This observation was consistent with their ability to inhibit BRAF^V600E.
(§6) To measure the capability of our compounds to interfere with BRAF pathway, pre-treated A375 and Colo205 cells were lysed. […] The total protein amount was determined using the bicinchoninic acid (BCA) protein assay reagent (Thermo Scientific, Waltham, MA, USA). […] Proteins were then transferred from gel to nitrocellulose with a Trans-Blot Turbo transfer system (Biorad, Hercules, CA, USA), probed with goat anti-rabbit IgG (H+L) secondary antibody, HRP conjugate (Invitrogen) or goat anti-mouse IgG (H+L) secondary antibody, HRP conjugate (Jackson ImmunoResearch Inc., Langcaster, PA, USA), and detected using enhanced chemiluminescence technique (Western Lightning Plus-ECL, Enhanced Chemiluminescence Substrate; Perkin Elmer, catalog # NEL105001EA, Waltham, MA, USA).
Background: A western blot detects proteins with antibodies after separation by electrophoresis.

Data set [7] relates to T2, BRAF^V600E.
T2 construct: endogenous in cells; host or cells: A375 and Colo205 cell lines
Put plainly: Western blot, BRAF^V600E degradation in A375. It counts as cell-based. The following applies: for BRAF^V600E degradation: A375, 24 h, 100–500 nM; for BRAF^V600E degradation at higher concentration: A375, up to 10 µM (Figure S4). The protocol: as §5
(§7) To measure the capability of our compounds to interfere with BRAF pathway, pre-treated A375 and Colo205 cells were lysed. We then performed protein analysis through Western blot by using the following primary antibodies: anti-phospho ERK 1/2 (clone E10; dilution 1:1000; Cell Signaling Technology, Danvers, MA, USA) and anti-ERK (clone 137F5; dilution 1:1000; Cell Signaling Technology); anti-phospho MEK (clone S217/221; dilution 1:1000; Cell Signaling Technology); anti-MEK1,2 (clone 9122; dilution 1:1000; Cell Signaling Technology); anti-BRAF v600e (dilution 1:1000; Abcam, Cambridge, UK); and anti-total BRAF (dilution 1:1000; ThermoFisher, Waltham, MA, USA). Vinculin (clone E1E9B; dilution 1:1000; Cell Signaling Technology) was used as a loading control. The total protein amount was determined using the bicinchoninic acid (BCA) protein assay reagent (Thermo Scientific, Waltham, MA, USA). Equivalent amounts of protein were separated by SDS–PAGE on precast Bolt 4–12% Bis-Tris gel (Invitrogen, Carlsbad, CA, USA). Proteins were then transferred from gel to nitrocellulose with a Trans-Blot Turbo transfer system (Biorad, Hercules, CA, USA), probed with goat anti-rabbit IgG (H+L) secondary antibody, HRP conjugate (Invitrogen) or goat anti-mouse IgG (H+L) secondary antibody, HRP conjugate (Jackson ImmunoResearch Inc., Langcaster, PA, USA), and detected using enhanced chemiluminescence technique (Western Lightning Plus-ECL, Enhanced Chemiluminescence Substrate; Perkin Elmer, catalog # NEL105001EA, Waltham, MA, USA).

Data set [8] concerns Colo205 cell line. Put plainly: Antiproliferative activity, CellTiter-Glo, Colo205. Type of data set: cell-based. The note with it: Homo sapiens, COLO 205; Colo205, 72 h (Figure 6b); read-out: Antiproliferative activity IC50 (nM ± SEM). The method, then:
as §1, §2

The test system of data set [9] is phosphorylation of MEK and ERK. Put plainly: Western blot, BRAF signaling in A375. It counts as cell-based. The note with it: A375, 24 h incubation. The method, then:
as §5, §6

Data set [10] relates to T2, BRAF^V600E. Put plainly: Western blot, BRAF^V600E degradation in Colo205. The note with it: for BRAF^V600E degradation: Colo205, 24 h, 100–500 nM; for BRAF^V600E degradation at higher concentration: Colo205, up to 10 µM (Figure S4). Type of data set: cell-based. The method, then: as §5, §7
Where [11] appears, read: first screening (Table 1), read-out: Antiproliferative Activity IC50 ± SEM.
The mark [12] stands for this setting: second set of experiments (Figure 6a), read-out: Antiproliferative activity IC50 (nM ± SEM).

Where two headings read alike, the source gives them in different places.

The term IC50 denotes the concentration at which inhibition is half-maximal. As usually defined, the half-life is the time in which the quantity being followed falls by half. Low readings indicate rapid decline, high ones slow decline. `CC(C)n1cc(-c2ccnc(NC[C@H](C)NC(=O)CCOCCOCCOCCNc3cccc4c3C(=O)N(C3CCC(=O)NC3=O)C4=O)n2)c(-c2cc(Cl)cc(NS(C)(=O)=O)c2F)n1` (stereo partly drawn) [Compound 8, N-((S)-1-((4-(3-(5-chloro-2-fluoro-3-(methylsulfonamido)phenyl)-1-isopropyl-1H-pyrazol-4-yl)pyrimidin-2-yl)amino)propan-2-yl)-3-(2-(2-(2-((2-(2,6-dioxopiperidin-3-yl)-1,3-dioxoisoindolin-4-yl)amino)ethoxy)ethoxy)ethoxy)propanamide]: in data set [1], the cell permeability entry was “ability to reach the cytosolic compartment”. In addition, the IC50 was found to be 1760 ± 287 nM in [2] (setting [11]) and 57 ± 7 nM in data set [4]. For the same molecule, the half-life at 100 μM in data set [3] is 24 h; in [5] it was 21 h.

As to `CC(C)n1cc(-c2ccnc(NC[C@H](C)NC(=O)CCOCCOCCOCCOCCOCCNc3cccc4c3C(=O)N(C3CCC(=O)NC3=O)C4=O)n2)c(-c2cc(Cl)cc(NS(C)(=O)=O)c2F)n1` (stereo partly drawn) [Compound 10, N-((S)-1-((4-(3-(5-chloro-2-fluoro-3-(methylsulfonamido)phenyl)-1-isopropyl-1H-pyrazol-4-yl)pyrimidin-2-yl)amino)propan-2-yl)-1-((2-(2,6-dioxopiperidin-3-yl)-1,3-dioxoisoindolin-4-yl)amino)-3,6,9,12,15-pentaoxaoctadecan-18-amide], the “phosphorylation of MEK and ERK” value is “able to decrease phosphorylation of MEK and ERK” in data set [6]; “able to decrease phosphorylation of MEK and ERK” in data set [9]. Moreover, the “BRAF^V600E degradation” value in data set [7] and in data set [10] was “not able to induce BRAF^V600E degradation” throughout. Also, the “BRAF^V600E degradation at higher concentration” value in [7] and in data set [10] was “no degradation of the target protein” each time. For the same molecule, the half-maximal inhibitory concentration (IC50) in data set [2] (setting [11]) was determined as 132 ± 1.95 nM; in data set [2] (setting [12]), 194 ± 36 nM; in data set [8], 31 ± 10 nM; in [4] it was 75 ± 17 nM. Moreover, the half-life at 100 μM was 23 h in data set [3] and 19 h in [5].

For the molecule `CC(C)n1cc(-c2ccnc(NC[C@H](C)NC(=O)CCOCCOCCn3cc(CNc4cccc5c4C(=O)N(C4CCC(=O)NC4=O)C5=O)nn3)n2)c(-c2cc(Cl)cc(NS(C)(=O)=O)c2F)n1` (stereo partly drawn) [Compound 11, N-((S)-1-((4-(3-(5-chloro-2-fluoro-3-(methylsulfonamido)phenyl)-1-isopropyl-1H-pyrazol-4-yl)pyrimidin-2-yl)amino)propan-2-yl)-3-(2-(2-(4-(((2-(2,6-dioxopiperidin-3-yl)-1,3-dioxoisoindolin-4-yl)amino)methyl)-1H-1,2,3-triazol-1-yl)ethoxy)ethoxy)propanamide], the “phosphorylation of MEK and ERK” value is “able to decrease phosphorylation of MEK and ERK” in data set [6]; “able to decrease phosphorylation of MEK and ERK” in data set [9]. Also, the “BRAF^V600E degradation” value in data set [7] and in data set [10] was “not able to induce BRAF^V600E degradation” throughout. For the same molecule, the “BRAF^V600E degradation at higher concentration” value in data set [7] and in [10] was “no degradation of the target protein” in each case. Besides, the half-inhibitory concentration (IC50) turned out to be 389 ± 15.1 nM in [2] (setting [11]), 417 ± 33 nM in [2] (setting [12]), 104 ± 20 nM in data set [8] and 43 ± 16 nM in data set [4].
